SMILES strings stand for the structures.

What all share (type): in vivo
One assay deals with C. difficile. The assay is described as follows: LD50 C. difficile challenge model, survival of mice. The note with it: administered 24 hours after C. difficile challenge; Day 0, Day 3, Day 10; versus control mice; FIG. 5. As for the experimental part: The mice of Example 2 were also evaluated for decreased morbidity in an LD50 C. difficile challenge model. The cationic cholesterol compound was administered 24 hours after C. difficile challenge (“Tx 24 Hr.”). FIG. 4 illustrates the steps used in performing the study.

Assay [1] is described as follows: Confined animal feed operation study of chickens, additive in drinking water. To be noted: for Harvest weight / Weight gain: day one through day 35, CSA-44 5 ppm in drinking water, control tetracycline in feed; for Death loss: in vivo. As for the experimental part: A study of 50,000 birds performed in 2 groups of 25,000 birds was performed on a confined animal feed operation. The following cationic cholesterol additive (CSA-44) was added to animal drinking water:
The additive was prepared in drinking water at a concentration of 5 ppm. The dry feed administered to the chickens contained no antibiotic.
A control group of birds was delivered tetracycline in animal feed according to conventional practices.
The cationic cholesterol additive was given from day one through day 35.

The subject of assay [2] is Lactobacillus bacteria (LAB). Kind of assay: Lactobacillus bacteria (LAB) concentration in ileum, cecum and colon of mice after oral CSA-44. To be noted: 10 mg/kg oral gastric lavage, 12 and 24 hours post Tx. As for the experimental part:
To evaluate the effectiveness of cationic cholesterol compounds on GI microbiota, the following compound (CSA-44) was administered oraly by gastric lavage to mice at 10 mg/kg:
To determine the health improvements caused by the cationic cholesterol compound, the concentration (cfu/mL) of Lactobacillus bacteria (LAB) (beneficial flora) in the ileum, cecum, and colon was determined at 12 and 24 hours. The LAB concentration was compared to control mice.
As illustrated in the graphs of FIGS. 1 and 2, the cationic cholesterol compound appears to have a significant “sparing” effect on beneficial Lactobacillus bacteria (LAB) flora (log values on y-axis) in the ileum, cecum and colon (on x-axis) when compared to control mice at 12 and 24 hours after being given CSA-44 (“post Tx”), resulting in almost a 2 log increase in LAB concentration in all 3 segments of the intestine when compared to control mice. This increase in LAB concentration flora is a surprising and unexpected result.

Another assay relates to C. difficile ATCC 9689. The assay is described as follows: Weight gain of mice after C. difficile challenge. To be noted: oral 10 mg/kg once, 24 and 48 hours after 1×10^5 cfu or 72 hours after 1×10^6 cfu challenge; FIG. 3. How it is done: In another study with the mice of Example 2, a cationic cholesterol additive was administered to determine changes in weight gain. The compound was administered orally @10/mg/kg once, 24 and 48 hours after C. difficile ATCC 9689 challenge at 1×10^5 cfu (or CFU) or 72 hours after challenge with 1×10^6 cfu (or CFU) (Day 0). The results are illustrated in the graph of FIG. 3.

Take `CCCCCCCCOC(=O)CC[C@@H](C)[C@H]1CC[C@H]2[C@@H]3[C@H](OC(=O)CCN)C[C@@H]4C[C@H](OC(=O)CCN)CC[C@]4(C)[C@H]3C[C@H](OC(=O)CCN)[C@]12C` [CSA-44]: the Survival rate entry in the assay on C. difficile was “improved survival rate”. In assay [1] (chickens, 5 ppm in drinking water, versus tetracycline control), the “Feed conversion efficiency improved” value came to 8%. In assay [1] (chickens), this compound had a Harvest weight of 4.22 lbs and a Weight gain of 0.120 lbs per day. Moreover, the Death loss in assay [1] turned out to be 535 birds. For the same compound, the “Increase in LAB concentration compared to control mice” value in assay [2] was around 2 log. Moreover, the “Weight gain after challenge with C. difficile” value in the assay with C. difficile ATCC 9689 was “trend for the treated mice to have greater weight gain”.

In assay [1] (chickens), `CN(C)[C@@H]1C(O)=C(C(N)=O)C(=O)[C@@]2(O)C(O)=C3C(=O)c4c(O)cccc4[C@@](C)(O)[C@H]3C[C@@H]12` [tetracycline, reference compound] registered a Harvest weight of 3.85 lbs and a Weight gain of 0.112 lbs per day. The Death loss in assay [1] is recorded as 1400-1500 birds.

Source of the values: patent US9387215B2, “Animal feed including cationic cholesterol additive and related methods” (priority 2013, dated 2016).
